According to paper PMC7617978, “Anti-trypanosomal quinazolines targeting lysyl-tRNA synthetases show partial efficacy in a mouse model of acute Chagas disease” (Science translational medicine, 2025):
Values joined by “and” are separate entries in the source; they are usually repeats but may differ in a detail not shown here. Identical values can stand only once. Like-named read-outs stand apart in the source and are kept apart here.

How the values were obtained:
[1] = test system: T. b. brucei BSF; experiment: Drug sensitivity assay, T. b. brucei bloodstream forms; assay type: cell-based; details: BSF; for EC50: read-out: EC50
[2] = test system: L. donovani (LdBOB) promastigote; experiment: Drug sensitivity assay, L. donovani promastigotes; assay type: cell-based; details: promastigote; for EC50: read-out: EC50
[3] = test system: T. cruzi (Sylvio X10/7A1 strain) epimastigote; experiment: microbe, parasite or virus in culture; assay type: cell-based; details: epimastigote; for EC50: read-out: EC50
[4] = test system: T. cruzi CL Brener strain; experiment: Bioluminescent mouse model of acute T. cruzi infection; assay type: in vivo, BALB/c mice; details: 100 mg/kg QD oral, 5 days, in words
Experimental: Female BALB/c mice (aged 6-7 weeks), purchased from Charles River (UK), were maintained under specific pathogen-free conditions in individually ventilated cages, with a 12 h light/dark cycle. They had access to food and water ad libitum. Mice were infected by intraperitoneal injection (i.p) of 1x10^3 bloodstream trypomastigotes derived from CB17 SCID mouse blood.
Compounds were prepared in 5% (v/v) dimethyl sulfoxide /95% HPMC suspension vehicle (0.5% (w/v) hydroxypropyl methylcellulose, 0.5% (v/v) benzyl alcohol, 0.4% (v/v) Tween 80 in Milli-Q water). Mice were treated as outlined in Fig. 5, with compounds administered by oral gavage. At different days after infection, mice were injected with d-luciferin (150 mg/kg) i.p., anaesthetized using 2.5% (v/v) gaseous isoflurane and imaged using an IVIS Spectrum (Revvity, Hopkinton, MA, USA) 5-10 min later. To estimate parasite burden, mice ventral and dorsal regions of interest were drawn using Living Image 4.7.3 to quantify bioluminescence expressed as total flux (photons/second; p/s). Regions of interest data from infected and not-infected mice were used as controls. Exposure times varied between 30 sec and 5 min, depending on the signal intensity.

[5] = target: Trypanosoma cruzi lysyl-tRNA synthetase 1 (TcKRS1), recombinant, residues 54-580 (Trypanosoma cruzi); experiment: SEC; size exclusion chromatography as the last step of purification of recombinant TcKRS1 (tag cleaved); running buffer not stated

O=C(NCC1(O)CCC(F)(F)CC1)c1cc(=O)c2cc(F)ccc2o1 [DDD01510706, reference compound]
Fold-shift (relative to WT) ([1]; KRS1 OE): 5 fold and ~ 5 fold
EC50 ([1]; KRS1 OE): 3 ± 0.1 µM
EC50 ([1]; KRS1 S323L): 33 ± 1 µM
Fold-shift (relative to WT) ([1]; KRS1 serine-to-leucine mutant (S323L; printed S319L in Table S1)): 53 fold
EC50 ([1]; WT): 0.6 ± 0.01 µM
Fold-shift (relative to WT) ([2]; KRS1 OE): 11 fold
EC50 ([2]; KRS1 OE): 8 ± 0.5 µM
Fold-shift (relative to WT) ([2]; KRS1 S324L): 12 fold
EC50 ([2]; WT): 0.7 ± 0.01 µM
Fold-shift (relative to WT) ([3]; KRS1 OE): 9 fold
EC50 ([3]; KRS1 OE): 13 ± 0.4 µM
Fold-shift (relative to WT) ([3]; KRS1 S319L): 25 fold
EC50 ([3]; KRS1 S319L): 36 ± 4 µM
EC50 ([3]; WT): 1.4 ± 0.04 µM

O=C(Cn1ccnc1[N+](=O)[O-])NCc1ccccc1 [benznidazole, reference compound]
parasite burden after treatment [4]: reduced close to the limit of detection

Trypanosoma cruzi lysyl-tRNA synthetase 1 (TcKRS1), recombinant, residues 54-580 (enzyme)
stoichiometry N [5]: 2
